Reference: ChEMBL document CHEMBL3596090, “Discovery of novel pyrazole-containing benzamides as potent RORγ inverse agonists” (Bioorg Med Chem Lett, 2015)
In brackets after ≈: the same amount, converted by molar mass.

How the values were obtained:
[1] = target: T1, Nuclear receptor ROR-gamma (Homo sapiens, UniProt P51449); experiment: Binding affinity to GST-tagged RORgamma LBD (unknown origin) assessed as inhibition of interaction with co-activatior peptide TRAP220 preincubated for 1 hr followed by TRAP220 addition by FRET analysis
T1 sequence (P51449 whole entry): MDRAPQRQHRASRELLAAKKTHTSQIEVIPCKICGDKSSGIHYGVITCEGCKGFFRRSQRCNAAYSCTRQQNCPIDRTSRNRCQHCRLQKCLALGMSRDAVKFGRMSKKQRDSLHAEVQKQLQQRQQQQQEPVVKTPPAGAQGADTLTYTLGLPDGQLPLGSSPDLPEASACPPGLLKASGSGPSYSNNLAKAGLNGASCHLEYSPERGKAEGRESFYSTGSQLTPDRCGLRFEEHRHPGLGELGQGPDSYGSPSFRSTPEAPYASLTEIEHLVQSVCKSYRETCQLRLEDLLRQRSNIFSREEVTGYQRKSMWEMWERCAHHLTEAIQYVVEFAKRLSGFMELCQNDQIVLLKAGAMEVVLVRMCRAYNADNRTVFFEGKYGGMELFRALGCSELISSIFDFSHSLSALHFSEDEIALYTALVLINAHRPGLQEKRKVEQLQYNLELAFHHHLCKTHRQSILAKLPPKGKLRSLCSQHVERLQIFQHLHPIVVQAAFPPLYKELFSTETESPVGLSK

[2] = target: T1, Nuclear receptor ROR-gamma; experiment: Inverse agonist activity at RORgamma (unknown origin) transfected in HEK293T cells after 16 to 20 hrs by GAL4 luciferase reporter gene assay; assay type: functional, cell-based, HEK-293T
[3] = target: T2, Nuclear receptor ROR-gamma (Mus musculus, UniProt P51450); experiment: Inverse agonist activity at RORgamma in C57BL/6 mouse splenocytes assessed as reduction of IL-17 production after 2 days by ELISA; assay type: cell-based
T2 sequence (P51450 whole entry): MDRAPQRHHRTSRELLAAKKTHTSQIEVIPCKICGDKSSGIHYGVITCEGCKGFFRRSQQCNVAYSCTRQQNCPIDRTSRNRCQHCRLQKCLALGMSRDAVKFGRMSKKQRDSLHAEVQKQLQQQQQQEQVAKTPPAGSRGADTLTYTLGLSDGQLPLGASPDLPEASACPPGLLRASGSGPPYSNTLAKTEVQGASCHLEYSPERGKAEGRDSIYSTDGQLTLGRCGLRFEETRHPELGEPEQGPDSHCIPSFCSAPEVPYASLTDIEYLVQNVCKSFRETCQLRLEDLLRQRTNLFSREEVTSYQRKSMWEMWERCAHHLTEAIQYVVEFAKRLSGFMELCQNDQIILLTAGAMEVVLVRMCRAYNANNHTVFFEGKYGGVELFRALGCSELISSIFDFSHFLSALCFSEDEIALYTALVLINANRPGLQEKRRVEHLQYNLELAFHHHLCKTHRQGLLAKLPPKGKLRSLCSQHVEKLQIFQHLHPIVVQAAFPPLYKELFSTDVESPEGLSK

[4] = Kinetic aqueous solubility of the compound; assay type: physicochemical; settings: buffer; read-out: Kinetic_solubility
[5] = Percentage unbound in human plasma; assay type: ADME, cell-free
[6] = Percentage unbound in rat plasma; assay type: ADME, cell-free
[7] = AUC in po dosed rat; assay type: ADME, organism-based; settings: in vivo
[8] = target: T3, Nuclear receptor ROR-alpha (Homo sapiens, UniProt P35398); experiment: Inverse agonist activity at RORalpha (unknown origin)
T3 sequence (P35398 whole entry): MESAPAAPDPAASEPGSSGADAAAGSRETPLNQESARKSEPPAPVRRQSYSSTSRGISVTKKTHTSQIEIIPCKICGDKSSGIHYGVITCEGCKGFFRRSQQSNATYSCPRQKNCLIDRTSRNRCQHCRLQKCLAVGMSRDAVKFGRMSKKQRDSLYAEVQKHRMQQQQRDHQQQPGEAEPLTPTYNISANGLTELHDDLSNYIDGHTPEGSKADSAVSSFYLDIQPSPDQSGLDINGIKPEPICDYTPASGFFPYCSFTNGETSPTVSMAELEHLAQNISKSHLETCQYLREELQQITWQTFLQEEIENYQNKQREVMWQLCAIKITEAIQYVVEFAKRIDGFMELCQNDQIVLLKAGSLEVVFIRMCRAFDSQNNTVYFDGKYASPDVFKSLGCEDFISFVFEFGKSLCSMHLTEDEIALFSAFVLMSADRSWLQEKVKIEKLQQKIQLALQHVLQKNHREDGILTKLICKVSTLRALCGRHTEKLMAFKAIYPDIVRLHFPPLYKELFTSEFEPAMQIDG

[9] = target: T4, Nuclear receptor ROR-beta (Homo sapiens, UniProt Q92753); experiment: Inverse agonist activity at RORbeta (unknown origin)
T4 sequence (Q92753 whole entry): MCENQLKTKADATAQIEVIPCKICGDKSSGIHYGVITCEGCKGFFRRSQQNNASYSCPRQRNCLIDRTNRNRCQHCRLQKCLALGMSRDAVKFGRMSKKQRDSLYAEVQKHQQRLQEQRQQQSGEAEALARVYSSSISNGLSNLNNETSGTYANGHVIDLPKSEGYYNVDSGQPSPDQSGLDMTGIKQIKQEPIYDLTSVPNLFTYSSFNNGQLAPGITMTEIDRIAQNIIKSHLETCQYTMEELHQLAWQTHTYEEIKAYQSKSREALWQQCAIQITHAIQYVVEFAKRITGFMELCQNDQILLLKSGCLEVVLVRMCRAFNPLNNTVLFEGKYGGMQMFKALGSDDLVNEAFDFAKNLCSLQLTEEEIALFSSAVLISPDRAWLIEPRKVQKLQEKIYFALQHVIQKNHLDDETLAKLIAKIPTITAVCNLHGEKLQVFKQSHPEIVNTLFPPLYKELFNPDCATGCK

[10] = target: T5, Nuclear receptor subfamily 1 group I member 2 (Homo sapiens, UniProt O75469); experiment: Activation of PXR (unknown origin)
T5 sequence (O75469 whole entry): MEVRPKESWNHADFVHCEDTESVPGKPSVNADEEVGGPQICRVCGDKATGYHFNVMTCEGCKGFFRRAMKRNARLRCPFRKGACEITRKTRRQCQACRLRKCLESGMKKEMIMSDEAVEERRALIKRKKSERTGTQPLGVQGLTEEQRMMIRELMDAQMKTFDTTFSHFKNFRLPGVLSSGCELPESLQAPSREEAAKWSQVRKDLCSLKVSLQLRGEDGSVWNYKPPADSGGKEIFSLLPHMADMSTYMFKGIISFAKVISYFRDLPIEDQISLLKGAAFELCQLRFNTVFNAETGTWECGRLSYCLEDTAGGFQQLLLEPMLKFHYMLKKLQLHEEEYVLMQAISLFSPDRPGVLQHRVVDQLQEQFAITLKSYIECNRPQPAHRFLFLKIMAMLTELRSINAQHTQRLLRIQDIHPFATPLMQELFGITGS

[11] = AUC (0 to 7 hrs) in rat at 10 mg/kg, po; assay type: ADME, organism-based; set-up: time < 7 hr, dose 10 mg/kg, route oral; settings: in vivo
[12] = AUC in mouse at 25 mg/kg, po; assay type: ADME, organism-based; settings: in vivo

| IC50 [1] [nM] | EC50 [2] [nM] | EC50 [3] [nM] | solubility kinetic [4] [µg/mL] | fraction unbound [5] | fraction unbound [6] | AUC [7] [ng·h/mL] | EC50 [8] [nM] | EC50 [9] [nM] | EC50 [10] [nM] | AUC(0-t) at 7 h [11] [ng·h/mL] | AUC [12] [ng·h/mL] | SMILES |
| --- | --- | --- | --- | --- | --- | --- | --- | --- | --- | --- | --- | --- |
| > 5000 | > 1000 | – | – | – | – | – | – | – | – | – | – | CC(=O)Nc1nc(-c2cnc(N(C)C(=O)c3c(F)cccc3Cl)c(N3CCCCC3)c2)n(C(C)C)n1 |
| 29 | 98 | 895 | 0.3 (≈ 0.579 µM) | 0.003 | 0.002 | 3130 | – | – | – | – | – | [2H]C([2H])([2H])N(C(=O)c1c(F)cccc1Cl)c1ccc(-c2cc(C(N)=O)ccc2Cl)cc1OCC(F)(F)F |
| – | – | 34 | 37.4 (≈ 72.9 µM) | 0.076 | 0.013 | – | 9300 | 2300 | 5400 | 927 | 2260 | CC(=O)Nc1cc(-c2cnc(N(C)C(=O)c3c(F)cccc3Cl)c(N3CCCCC3)c2)n(C(C)C)n1 |
| – | – | 38 | 2.1 (≈ 4.09 µM) | 0.014 | 0.002 | – | 1600 | 1300 | 9900 | 1040 | 2830 | [2H]C([2H])([2H])N(C(=O)c1c(F)cccc1Cl)c1ccc(-c2cc(NC(C)=O)nn2C(C)C)cc1N1CC2CC2C1 (configuration not stated) |
